The record followed here is ChEMBL document CHEMBL4261515, “An insight into the therapeutic potential of quinazoline derivatives as anticancer agents” (2017).

In this test the test system is MCF7. Nature of the test: Potency index, ratio of cisplatin IC50 to test compound IC50 for cytotoxicity against human MCF7 cells after 48 hrs by MTT assay. It is filed as functional.

For the compound `COc1ccc(/C=C2\N=C(c3ccco3)N(n3c(C)nc4c(Br)cc(Br)cc4c3=O)C2=O)cc1`, the “Ratio IC50” value turned out to be 3.
